Patent publication US6683083B1, “Anticancer agents” (priority 1999, dated 2004)
Values joined by “and” are separate entries in the source; they are usually repeats but may differ in a detail not shown here. Equal values may be shown once.

Legend:
[1] = system: HL60 (human leukemia cell line); assay: MTT assay, in vitro antitumor effect; format: cell-based; settings: HL60, 96 hours incubation, average±error range of triple culture tests, read-out: amount of compound 1 required to achieve IC50
From the text: (§1) (2) Verification of In Vitro Antitumor Effects on Various Human Cancer Cell Lines According to the MTT Assay Method.
(§2) Each single cell of a human non-small-cell lung cancer cell line PC-14, a human non-small-cell lung cancer cell line SBC-3, a human […] cell line MCF-7, a human non-small-cell ovarian cancer cell line SKOV3, a human leukemia cell line HL60 and a human colon cancer cell line WiDR was obtained by trypsinization or by using a cell scraper in RPMI 1640 medium to prepare a suspension containing 100 cells per 15 μl. The compound 1 as an anticancer agent was dissolved in dimethylsulfoxide and then the solution was added to the suspension to make the concentration of the compound fall within a range between 0.5 and 1 μM, and the resulting suspension was poured into a 96-perforated plate at 150 μl/well. This plate was maintained at a temperature of 37° C. under 5% of carbon dioxide and saturated vapor for 96 hours to incubate the suspension. After incubation, the incubated suspension was combined with 20 μl of MTT (3-(4,5-dimethylthiazol-2-yl)-2,5-diphenyltetrazoliumbromide) reagent dissolved in D-PBS (−) at a concentration of 5 mg/ml, and was further incubated at 37° C. for 4 hours. After the completion of incubation, the entire plate was centrifuged to discharge supernatant. Then, 200 μl of dimethyl sulfoxide was added to dissolve purple formazan which is created from yellow MTT by the action of dehydrogenase lying in mitochondria in the cancer cell, and the amount of the created formazan was determined by reading the absorbance at a wave length ranging from 562 to 630 nm with a multi-plate reader. Given that the average growth rate of a negative control is […] and the average growth rate of a positive control is 100%, a tumor-volume growth curve was plotted, and the concentration of compound 1 required for 50% of human cancer-cell proliferation suppression was calculated.
(§3) The values in Table 1 indicate each value of the concentration required for 50% of human cancer-cell proliferation suppression from the MTT assay in triple culture tests of independent cancer cells using compound 1 by average±error range (μM).

[2] = system: MCF-7 (human mammary cancer cell line); assay: MTT assay, in vitro antitumor effect; format: cell-based; settings: MCF-7, 96 hours incubation, average±error range of triple culture tests, read-out: amount of compound 1 required to achieve IC50
From the text: as §1, §2, §3

[3] = system: SBC-3 (human small-cell lung cancer cell line); assay: MTT assay, in vitro antitumor effect; format: cell-based; settings: SBC-3, 96 hours incubation, average±error range of triple culture tests, read-out: amount of compound 1 required to achieve IC50
From the text: as §1, §2, §3

[4] = system: SKOV3 (human ovarian cancer cell line); assay: MTT assay, in vitro antitumor effect; format: cell-based; settings: SKOV3, 96 hours incubation, average±error range of triple culture tests, read-out: amount of compound 1 required to achieve IC50
From the text: as §1, §2, §3

[5] = system: WiDR (human colon cancer cell line); assay: MTT assay, in vitro antitumor effect; format: cell-based; settings: 96 hours incubation, average±error range of triple culture tests, read-out: amount of compound 1 required to achieve IC50
From the text: as §1, §2, §3

[6] = system: human non-small-cell lung cancer cell line PC-14; assay: MTT assay, in vitro antitumor effect; format: cell-based; settings: PC-14, 96 hours incubation, average±error range of triple culture tests, read-out: amount of compound 1 required to achieve IC50
From the text: as §1, §2, §3

fibroblasts NIH3T3 = assay: Fibroblast cell-proliferation suppression (cell count); format: cell-based; settings: NIH3T3, 1×10^−6 M and 3×10^−6 M, cell number every 24 hours, FIG. 1
Method: FIG. 1 is a graph showing a cell-proliferation suppressing action against fibroblast of the compound represented by the above general formula [1] and the like shown in Example 2.
Nine plates were prepared for each of control and compound 1 groups each having a concentration of 1×10^−6 M and a compound 1 group having a concentration of 3×10^−6 M (total of 27 plates). The number 4.4×10^5 of fibroblasts NIH3T3 were added to each of the 27 plates, and D-MEM culture solution added with 10% FBS (fetal bovine serum) was added thereto. Each of the controls was incubated with added water corresponding to the added amount of compound 1. The number of cells in 3 plates of each of the groups was measured every 24 hours, and the measured numbers were averaged to provide an average cell number per plate.

[7] = system: human non-small-cell lung cancer cell line PC-14; assay: PC-14 subcutaneous implant in nude mice, tumor volume; format: in vivo, female nude mice BALB/c nu/nu; set-up: key: relative tumor volume, 1st day = 100; volume = minor axis^2 × major axis; settings: 1st day = 100
[8] = Entire body state and weight of tumor-bearing nude mice; format: in vivo, female nude mice BALB/c nu/nu; settings: 3 and 5 mg/kg by tail injection, once a day on 7th, 8th, 10th, 11th days after implantation
Method: For six subjects of the group number 1, the compound 1 was administered by injecting from each tail of the nude mice on each of the 7th, 8th, 10th and 11th days after the implantation, at 3 mg of the compound 1 per kg of weight once a day. For six subjects of the group number 2, the compound 1 was administered by injecting from each tail of the nude mice on each of the 7th, 8th, 10th and 11th days after the implantation, at 5 mg of the compound 1 per kg of weight once a day. The subjects of the group number […] to be the controls were a group having no administration of the compound 1, and neither administration nor treatment of the compound 1 was performed on the controls. […] However, in the result of each tumor volume of the mice, a specific difference was found between the subjects of the group numbers 1 to 3. The measurement of the tumor volumes is shown in the following Table 2, and the average of the tumor volumes in each of the groups is shown in Table 3. In Tables 2 and 3, each size of the tumor volumes after the 2nd day is represented on condition that the size of the tumor volume on the 1st day is 100.

various cancers = assay: Overall carcinostatic effect, results of examples 1 to 3; settings: overall statement

Compound: OC(CN1CCN(C(c2ccccc2)c2ccccc2)CC1)CN1CCC(O)(c2ccc(Cl)cc2)CC1 (stereo not shown) [compound 1, 1-[1-4-(diphenylmethyl)piperazinyl]-3-[1-{4-(4-chlorophenyl)-4-hydroxy}piperidinyl]-2-propanol]
- IC50 [1]: 1180 ± 50 nM
- IC50 [2]: 600 ± 80 nM
- IC50 [3]: 460 ± 30 nM
- IC50 [4]: 850 ± 20 nM
- IC50 [5]: 410 ± 30 nM
- IC50 [6]: 1020 ± 200 nM
- cell-proliferation suppressing action against fibroblast (fibroblasts NIH3T3): effectiveness to proliferative lesions
- tumor volume, average (6 mice) ([7]; group No. 2 (3 mg/kg tail injection), 2 day): 89.79
- tumor volume, individual mice ([7]; group No. 2 (3 mg/kg tail injection), 2 day, 3 mg/kg): 45.35 and 120.51 and 139.67 and 73.21 and 73.29 and 66.68
- tumor volume, average (6 mice) ([7]; group No. 2 (3 mg/kg tail injection), 3 day): 67.01
- tumor volume, individual mice ([7]; group No. 2 (3 mg/kg tail injection), 3 day, 3 mg/kg): 20.22 and 98.14 and 85.27 and 52.91 and 62.47 and 83.06
- tumor volume, average (6 mice) ([7]; group No. 2 (3 mg/kg tail injection), 4 day): 68.38
- tumor volume, individual mice ([7]; group No. 2 (3 mg/kg tail injection), 4 day, 3 mg/kg): 46.17 and 80.18 and 105.01 and 42.19 and 31.02 and 85.73
- tumor volume, average (6 mice) ([7]; group No. 2 (3 mg/kg tail injection), 5 day): 46.68
- tumor volume, individual mice ([7]; group No. 2 (3 mg/kg tail injection), 5 day, 3 mg/kg): 31.44 and 66.58 and 67.76 and 22.55 and 18.55 and 51.09
- tumor volume, average (6 mice) ([7]; group No. 2 (3 mg/kg tail injection), 6 day): 47.73
- tumor volume, individual mice ([7]; group No. 2 (3 mg/kg tail injection), 6 day, 3 mg/kg): 30.93 and 122.90 and 55.16 and 0.00 and 10.11 and 51.30
- tumor volume, average (6 mice) ([7]; group No. 2 (3 mg/kg tail injection), 7 day): 42.99
- tumor volume, individual mice ([7]; group No. 2 (3 mg/kg tail injection), 7 day, 3 mg/kg): 52.68 and 99.04 and 75.58 and 0.00 and 12.98 and 47.68
- tumor volume, average (6 mice) ([7]; group No. 2 (3 mg/kg tail injection), 8 day): 58.33
- tumor volume, individual mice ([7]; group No. 2 (3 mg/kg tail injection), 8 day, 3 mg/kg): 56.49 and 127.45 and 130.56 and 0.00 and 4.97 and 30.49
- tumor volume, average (6 mice) ([7]; group No. 3 (5 mg/kg tail injection), 2 day): 78.63
- tumor volume, individual mice ([7]; group No. 3 (5 mg/kg tail injection), 2 day, 5 mg/kg): 55.40 and 63.47 and 93.53 and 68.25 and 90.42 and 80.68
- tumor volume, average (6 mice) ([7]; group No. 3 (5 mg/kg tail injection), 3 day): 75.11
- tumor volume, individual mice ([7]; group No. 3 (5 mg/kg tail injection), 3 day, 5 mg/kg): 58.27 and 43.51 and 72.22 and 113.73 and 70.23 and 92.68
- tumor volume, average (6 mice) ([7]; group No. 3 (5 mg/kg tail injection), 4 day): 74.99
- tumor volume, individual mice ([7]; group No. 3 (5 mg/kg tail injection), 4 day, 5 mg/kg): 79.34 and 40.73 and 83.65 and 123.79 and 36.86 and 84.55
- tumor volume, average (6 mice) ([7]; group No. 3 (5 mg/kg tail injection), 5 day): 60.45
- tumor volume, individual mice ([7]; group No. 3 (5 mg/kg tail injection), 5 day, 5 mg/kg): 47.44 and 40.65 and 62.95 and 103.32 and 28.95 and 79.20
- tumor volume, average (6 mice) ([7]; group No. 3 (5 mg/kg tail injection), 6 day): 53.82
- tumor volume, individual mice ([7]; group No. 3 (5 mg/kg tail injection), 6 day, 5 mg/kg): 33.96 and 32.21 and 54.93 and 135.18 and 14.65 and 51.96
- tumor volume, average (6 mice) ([7]; group No. 3 (5 mg/kg tail injection), 7 day): 64.86
- tumor volume, individual mice ([7]; group No. 3 (5 mg/kg tail injection), 7 day, 5 mg/kg): 34.07 and 36.27 and 86.76 and 129.59 and 17.36 and 85.12
- tumor volume, average (6 mice) ([7]; group No. 3 (5 mg/kg tail injection), 8 day): 62.63
- tumor volume, individual mice ([7]; group No. 3 (5 mg/kg tail injection), 8 day, 5 mg/kg): 47.99 and 15.80 and 102.87 and 140.33 and 7.22 and 61.54
- entire body state and weight of the mice versus control [8]: substantially no difference
- carcinostatic effect (results of examples 1 to 3) (various cancers): high carcinostatic effect
